Data from publication PMC10647059, “Molecular Determinants of EphA2 and EphB2 Antagonism Enable the Design of Ligands with Improved Selectivity” (Journal of Chemical Information and Modeling, 2023).

Columns and labels:
EphB2 = biological target: T1, EphB2 (Mus musculus, UniProt P54763); assay: ELISA binding assay: displacement and saturation of biotinylated ephrin-B1-Fc on immobilized EphB2; conditions: data not shown
T1 sequence (P54763 19-543): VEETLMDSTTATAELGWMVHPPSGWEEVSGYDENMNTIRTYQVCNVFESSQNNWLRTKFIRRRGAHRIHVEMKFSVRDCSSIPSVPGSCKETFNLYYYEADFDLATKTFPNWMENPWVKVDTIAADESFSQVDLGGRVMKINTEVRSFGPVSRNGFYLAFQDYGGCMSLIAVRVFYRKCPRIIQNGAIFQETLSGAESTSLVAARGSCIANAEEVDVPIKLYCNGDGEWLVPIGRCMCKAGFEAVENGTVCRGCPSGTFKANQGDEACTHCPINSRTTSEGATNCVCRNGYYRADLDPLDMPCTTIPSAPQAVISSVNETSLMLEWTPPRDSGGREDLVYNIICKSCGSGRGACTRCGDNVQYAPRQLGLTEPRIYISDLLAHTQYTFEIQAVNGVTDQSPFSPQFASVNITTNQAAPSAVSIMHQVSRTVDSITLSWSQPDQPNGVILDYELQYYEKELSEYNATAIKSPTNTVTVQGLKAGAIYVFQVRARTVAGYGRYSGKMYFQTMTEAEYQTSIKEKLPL

[1] = Rat liver microsome stability assay; type: in vitro ADME; conditions: liver microsomes, pH 7.4, 60 min at 37 °C, NADPH-generating system, read-out: compound recovery at 60 min in rat liver microsomes
Description: Experiments were performed as previously described.[59]

[2] = Rat plasma stability assay; conditions: 60 min at 37 °C, 1 μM
Description: Pooled plasma (400 μL) was incubated at 37 °C in the presence of 10 mM phosphate-buffered saline (PBS) pH 7.4. 5 μL of compound stock solution in DMSO (final DMSO concentration: 1%; final compound concentration: 1 μM) was added to start the rat plasma stability assay. […] At fixed time points, aliquots of 50 μL were taken, added with two volumes of CH3CN containing as internal standard the structural analogue UniPR126, centrifuged (16,000g, 5 min, 4 °C), and analyzed by HPLC-ESI-MS/MS. The responses (i.e., peak area ratios of test compound vs internal standard) were referred to the zero time-point samples (considered as 100%) to determine the percentage of remaining compound vs time.

U251 GBM cell line = assay: MTT cell viability/proliferation assay on U251 glioblastoma cell line; type: cell-based; conditions: 30 μM, continuous exposure, time course vs control DMSO 0.3%
Description: Figure 12 reports the time course of cell growth compared to the control (DMSO 0.3% solution) in the presence of a compound concentration of 30 μM. […] Although additional investigations will be required to confirm this promising behavior, it could be speculated that the higher antiproliferative activity of UniPR1449 compared to that of […], and the reference antagonist UniPR1331, is due to its peculiar pharmacological profile at the level of Eph receptors.
Data are the means of at least three independent experiments ± standard deviation.
Figure S10. Cell viability assay performed using a MTT assay on U251 glioblastoma cell line treated with the approved drug temozolomide and the reference compound UniPR1331.

physchem = conditions: pH 7.4
Description: Distribution coefficients (D) were measured at physiological pH by the shake-flask method at room temperature (21.0 ± 0.5 °C), employing n-octanol/50 mM MOPS buffer pH 7.4, 0.15 M KCl ionic strength as a biphasic solvent system, after mutual saturation by overnight stirring. A weighed amount of compound was dissolved in water-saturated n-octanol, a buffer was added, and the sample was stirred for 4 h to reach partition equilibrium. Partition phases were centrifuged (9000g, 10 min, 20 °C), separated, diluted with methanol, and dosed by HPLC-ESI-MS/MS.

EphA2 [3] = biological target: T2, EphA2 (Mus musculus, UniProt Q03145); assay: ELISA binding assay: displacement and saturation of biotinylated ephrin-A1-Fc on immobilized EphA2-Fc
Description: Compounds were added to the wells at proper concentrations in 0.5% DMSO and incubated at 37 °C for 1 h. Biotinylated ephrin-A1-Fc was added at 37 °C for 4 h. Data are the means of three independent experiments ± standard deviation.
The day after, wells were washed with a washing buffer (PBS 0.05% tween20, pH 7.5) and blocked with a blocking buffer solution (PBS 1% BSA) for 1 h at 37 °C. Compounds were added to the wells at a proper concentration in 0.5% DMSO and incubated at 37 °C for 1 h. […] After 4 h for displacement assays or 5 h for saturation studies, wells were washed and incubated with 100 μL/well Streptavidin-HRP (Sigma S5512) for 20 min at room temperature. Then, wells were washed again with a washing buffer and incubated at room temperature with 0.1 mg/mL tetramethylbenzidine (Sigma T2885) reconstituted in stable peroxide buffer (0,05 M citric acid +0,05 M dibasic sodium phosphate, pH 5). The reaction was quenched with 3 N HCl. Absorbance was read at 450 nm (ELISA plate reader). The IC50 and Ki values were determined using one-site competition nonlinear regression analysis with Prism software (GraphPad Software Inc.).

EphA2 [4] = biological target: T2, EphA2; assay: Surface plasmon resonance, steady-state analysis on immobilized EphA2-Fc; type: binding; conditions: EphA2-Fc on CM4 sensorchip; ± standard deviation; read-out: KD (SPR, steady-state)
Description: Increasing concentrations of the two compounds were injected over EphA2-Fc immobilized on the surface of a CM SPR4 sensorchip and evaluated for their interaction.
Surface plasmon resonance (SPR) measurements were performed on a BIAcore X100 instrument, using a carboxyl-methyl-dextran-coated sensorchip (CM4, GE-Healthcare).

T2 sequence (Q03145 with tags, fused parts or gaps limits assumed): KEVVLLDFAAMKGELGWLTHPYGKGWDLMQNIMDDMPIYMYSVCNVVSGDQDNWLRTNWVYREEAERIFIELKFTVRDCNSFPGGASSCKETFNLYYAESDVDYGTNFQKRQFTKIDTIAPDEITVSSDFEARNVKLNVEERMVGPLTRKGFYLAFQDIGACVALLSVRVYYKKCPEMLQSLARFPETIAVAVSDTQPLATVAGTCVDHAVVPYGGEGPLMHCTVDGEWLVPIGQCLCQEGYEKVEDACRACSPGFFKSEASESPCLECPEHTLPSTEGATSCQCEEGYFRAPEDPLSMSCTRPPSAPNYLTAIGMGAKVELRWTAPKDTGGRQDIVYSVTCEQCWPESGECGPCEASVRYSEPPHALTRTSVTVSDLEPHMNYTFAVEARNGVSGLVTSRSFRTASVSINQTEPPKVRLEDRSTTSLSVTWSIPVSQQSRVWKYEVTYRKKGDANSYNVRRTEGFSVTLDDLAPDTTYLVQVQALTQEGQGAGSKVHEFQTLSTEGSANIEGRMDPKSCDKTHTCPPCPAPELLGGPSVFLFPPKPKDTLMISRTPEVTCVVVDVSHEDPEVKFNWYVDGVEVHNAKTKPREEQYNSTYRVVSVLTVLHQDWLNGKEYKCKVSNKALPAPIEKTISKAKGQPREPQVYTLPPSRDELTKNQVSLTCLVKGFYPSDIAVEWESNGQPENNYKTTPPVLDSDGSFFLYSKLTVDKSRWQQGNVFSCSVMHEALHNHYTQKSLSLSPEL

## C[C@H](CCC(=O)N[C@H](CC(=O)O)Cc1c[nH]c2ccccc12)[C@H]1CCC2C3CC=C4C[C@@H](O)CC[C@]4(C)C3CC[C@@]21C (stereo partly drawn) [UniPR1447, N-(3β-hydroxy-Δ^5-cholen-24-oyl)-L-β-homotryptophan]
EphB2
  reversibility of binding to EphB2: fully reversible
[1]
  remaining at 60 min, 1 μM: 40.3%
[2]
  stability in rat plasma: stable
U251 GBM cell line
  effect on U251 cell growth (MTT): did not significantly affect U251 growth
physchem
  logD at 4 h: 4.6 ± 0.1

## CC(CCC(=O)NC(CC(=O)O)Cc1cn(S(=O)(=O)c2ccccc2)c2ccccc12)C1CCC2C3CC=C4CC(O)CCC4(C)C3CCC12C [UniPR1449, N-(3β-hydroxy-Δ^5-cholen-24-oyl)-1-benzensulfonyl-L-β-homotryptophan]
EphA2 [3]; 50 μM compound, with or without washing three times with PBS before ephrin-A1-Fc
  reversibility of binding to EphA2: reversible
EphA2 [3]; read-out: Ki for EphA2 (saturation curves of ephrin-A1-Fc, nonlinear regression)
  Ki: 2.2 µM
[1]
  remaining at 60 min, 1 μM: 62.2%
[2]
  stability in rat plasma: stable
U251 GBM cell line
  effect on U251 cell growth (MTT): fully blocked GBM growth
physchem
  logD at 4 h: 4.7 ± 0.11
EphA2 [4]
  Kd: 3.8 ± 2.4 µM
